Ki data for 27 compounds are collected here from ChEMBL document CHEMBL4842373, “C1'-Branched acyclic nucleoside phosphonates mimicking adenosine monophosphate: Potent inhibitors of Trypanosoma brucei adenine phosphoribosyltransferase” (Eur J Med Chem, 2021).

The experiment in a line: Inhibition of Trypanosoma brucei adenine phosphoribosyltransferase expressed in Escherichia coli measured by spectrophotometric method.
Regarding `Nc1ncnc2c1ncn2C(COCP(=O)(O)O)C1CC1` (configuration not stated), the affinity corresponds to a Ki of 5.84 µM.
As for `Nc1ncnc2c1ncn2[C@H](CCOCP(=O)(O)O)OCCO`, the Ki came out at 37.2 µM.
Turning to `CO[C@H](COCP(=O)(O)O)n1cnc2c(N)ncnc21`, the affinity corresponds to a Ki of 9.88 µM.
On to `C#CC(COCP(=O)(O)O)n1cnc2c(N)ncnc21` (configuration not stated), for which the Ki is 26.7 µM.
The same measure for `Nc1ncnc2c1ncn2C(COCCP(=O)(O)O)OCCO` (configuration not stated): above 30 µM; for `Nc1ncnc2c1ncn2C(CCP(=O)(O)O)OCCO` (configuration not stated): above 30 µM; for `Nc1ncnc2c1ncn2C(CO)COCP(=O)(O)O` (configuration not stated): 19.7 µM.
`Nc1ncnc2c1ncn2[C@@H](COCc1ccccc1)COCP(=O)(O)O` registered a Ki above 30 µM.
On to `CO[C@@H](COCP(=O)(O)O)n1cnc2c(N)ncnc21`, for which the Ki was above 30 µM.
For `Nc1ncnc2c1ncn2C(COCP(=O)(O)O)C(F)(F)F` (configuration not stated), the Ki was above 30 µM.
Consider `C=CC(COCP(=O)(O)O)n1cnc2c(N)ncnc21` (configuration not stated), for which the affinity corresponds to a Ki of 16.3 µM.
In turn, `CC(C)[C@H](COCP(=O)(O)O)n1cnc2c(N)ncnc21` yielded an inhibition constant Ki of 0.57 µM.
To `Nc1ncnc2c1ncn2C(COCP(=O)(O)O)OCCO` (configuration not stated) belongs 6.1 µM.
For `Nc1ncnc2c1ncn2C(CCOCP(=O)(O)O)OCCO` (configuration not stated), the affinity, expressed as Ki, was 4.9 µM.
With `CC[C@H](COCP(=O)(O)O)n1cnc2c(N)ncnc21`, the Ki stood at 3.18 µM.
Turning to `CC(COCP(=O)(O)O)n1cnc2c(N)ncnc21` (configuration not stated), the Ki was above 30 µM.
Compound `CC(C)[C@@H](COCP(=O)(O)O)n1cnc2c(N)ncnc21` registered a Ki of 17.5 µM.
As to `CCO[C@@H](COCP(=O)(O)O)n1cnc2c(N)ncnc21`, the Ki is above 30 µM.
The compound `Nc1ncnc2c1ncn2[C@@H](CCOCP(=O)(O)O)OCCO` returned an inhibition constant (Ki) of 1.56 µM.
The same measure for `Nc1ncnc2c1ncn2C(CCOCP(=O)(O)O)OCCCO` (configuration not stated): 3.21 µM; for `CCOC(COCP(=O)(O)O)n1cnc2c(N)ncnc21` (configuration not stated): 3.95 µM; for `Nc1ncnc2c1ncn2[C@H](CO)COCP(=O)(O)O`: 15.4 µM.
The same measure for `CCC(COCP(=O)(O)O)n1cnc2c(N)ncnc21` (configuration not stated): 11.8 µM.
Compound `COC(COCP(=O)(O)O)n1cnc2c(N)ncnc21` (configuration not stated) registered a Ki of 13.1 µM.
The same measure for `Nc1ncnc2c1ncn2[C@@H](COCP(=O)(O)O)C1CC1`: 2.95 µM.
`CCO[C@H](COCP(=O)(O)O)n1cnc2c(N)ncnc21` showed a Ki of 2.39 µM.
Consider `Nc1ncnc2c1ncn2[C@H](COCc1ccccc1)COCP(=O)(O)O`, for which the Ki came to 39 µM.
